Results from patent US20100196342A1, “MOOD, MEMORY AND COGNITIVE FUNCTION WITH PYRIDOXAL 5'-PHOSPHATE” (priority 2007, published 2010).

Tests used:
males, ages 70-79 years = settings: 20 mg daily for 3 months; cited from earlier work
P2 purinoceptors = settings: cited from earlier work
[1] = system: Human males aged between 65 and 90; experiment: Associative learning task (colour-number association recall) in aged males; assay type: in vivo
Experimental: Human males aged between 65 and 90 are separated into four random groups: control, low dose of P5P (100 mg/day), medium dose of P5P (250 mg/day), and high dose of P5P (750 mg/day). All dosages are administered orally for 3 weeks before subjecting the patients to an associative learning task.
The patients are subjected to an associative learning task, as follows. Briefly, patients are comfortably seated in front of a computer. Patients are asked to learn the associations between six colors and the numbers 1-6, using trial and error. Subjects are then required to recall this association, a defined period of time after the associations are learned. Tests are repeated, with the defined period of time increasing, until the patients are no longer able to associate the colors with the numbers.

healthy subjects = experiment: Phase I single ascending dose study, safety and tolerance; assay type: in vivo, human; settings: single oral dosages up to 4000 mg
Experimental: A Phase I, single center, single-dose, open-label, sequential ascending dose study to evaluate the safety and tolerance of pyridoxal-5′-phosphate, in an enteric-coated tablet, following a single dose of 250 mg, 750 mg, 1000 mg, and 4000 mg in healthy subjects under fasting conditions was conducted.
A total of 32 healthy, adult subjects signed the study-specific Informed Consent Form and were confined in the clinical study unit; of these subjects, 24 (6 subjects in each dose level; 3 males and 3 females) were dosed and were enrolled in the study; all of these enrolled subjects completed the study. Subjects were confined to the SFBC Anapharm Clinical Research Facility from at least 12 hours prior to drug administration until after the 24.0-hour post-dose blood draw.
Subjects enrolled in this study were members of the community at large. […] All participating subjects were judged eligible for the study when assessed against the inclusion and exclusion criteria. […]

[2] = system: Individuals diagnosed with mild depression; experiment: Assessment of level of depression by depression inventory scales and DSM-IV; assay type: in vivo, human
Experimental: Individuals diagnosed with mild depression are divided into four groups at random: control, low dose of P5P (100 mg/day), medium dose of P5P (250 mg/day), and high dose of P5P (750 mg/day). All dosages are administered orally for 3 weeks.
The level of depression of the individuals is assessed, both before, and after treatment, using conventional methodologies. These include completion of several depression inventory questionnaire scales including the Cornell Scale for Depression in Dementia, Centre for Epidemiologic Studies Depression Scale, The Geriatric Depression Scale (Short Version), Beck Depression Inventory and the Zung Self-Rating Depression Scale as well as diagnosis by a trained professional according to the DSM-IV. These questionnaires measure depression through questions related to appetite, sadness, worthlessness/inadequacy, concentration, exhaustion, failure, retardation, socialization, isolation, anxiety, irritability, agitation, loss of interest, lack of energy, diurnal mood variation, insomnia, suicidal thoughts, low self-esteem, pessimism, mood congruent delusions, satisfaction, withdrawal, fulfillment, mood, fear, guilt, self-accusations, somatic preoccupation and loss of libido.

healthy people = settings: U.S. National Academy of Sciences recommendation; cited from earlier work
[3] = 250 mg/day vs 750 mg/day orally for 3 weeks
[4] = P5P 100, 250 or 750 mg/day orally for 3 weeks

Which “information storage vs matched placebo group” value (males, ages 70-79 years) does the source give for vitamin B6 here?
Its value is “improved information storage”.

For `Cc1ncc(COP(=O)(O)O)c(C=O)c1O` [P5P, 3-hydroxy-2-methyl-5-[(phosphonooxy)methyl]-4-pyridine-carboxaldehyde], which “effect on ATP induced calcium ion influx into cells” value (P2 purinoceptors) is on record?
The value was “inhibits”.

What about the “associative learning and memory, medium vs high dose group” value [1, 3] of the same molecule?
Its value is “no significant difference”.

And the “time after which the number-colour association can be recalled, vs control patients” value [1, 4]?
Its value is “significantly longer time”.

What about the “tolerability (side effects, evidence of toxicity)” value (healthy subjects) of the same molecule?
Its value is “well tolerated”.

What about the “level of depression, medium vs high dose group” value [2, 3] of the same molecule?
The value was “not significantly different”.

And the “level of depression, medium and high dose groups vs low dose group” value ([2]; 250 and 750 mg/day vs 100 mg/day orally for 3 weeks)?
Its value is “significantly less depressed”.

And the “level of depression vs control individuals” value [2, 4]?
The value was “significantly less depressed”.

Which “Tolerable Upper Intake Level” value (healthy people) does the source give for `Cc1ncc(CO)c(CO)c1O` [pyridoxine] here?
Its value is 100 mg.
